Structures are written as SMILES. Activity calls are given as the source filed them. The rule behind the calls is not given here.

Experiment [1] has as its system A-375. Kind of experiment: Inhibition of human A375 cell adhesion to fibronectin-coated dish at 50 uM incubated for 30 mins measured after 1 to 4 hrs by crystal violet staining-based method relative to control. It is filed as functional.
Experiment [2] relates to A-375. The experiment can be described thus: Cytotoxicity against human A375 cells at 10 to 50 uM after 24 hrs by crystal-violet staining-based method. It is filed as functional, cell-based.
Experiment [3] addresses RAC-alpha serine/threonine-protein kinase (Homo sapiens) (UniProt P31749). The experiment can be described thus: Inhibition of AKT phosphorylation in human A375 cells at 50 uM after 24 hrs by Western blotting analysis. The format is cell-based. Conditions: A-375.
The test system of experiment [4] is A-375. The experiment can be described thus: Induction of anoikis in human A375 cells at 50 uM after 24 hrs by FITC-labeled Annexin V-propidium iodide staining-based FACS flow cytometric analysis (reference value: 15%). The format is functional.
Experiment [5] concerns A-375. The experiment can be described thus: Inhibition of serum-starved human A375 cell migration at 50 uM after 24 hrs relative to control. It is filed as functional. Conditions: A-375, 24 h.

Chain of RAC-alpha serine/threonine-protein kinase (Homo sapiens) (P31749 whole entry): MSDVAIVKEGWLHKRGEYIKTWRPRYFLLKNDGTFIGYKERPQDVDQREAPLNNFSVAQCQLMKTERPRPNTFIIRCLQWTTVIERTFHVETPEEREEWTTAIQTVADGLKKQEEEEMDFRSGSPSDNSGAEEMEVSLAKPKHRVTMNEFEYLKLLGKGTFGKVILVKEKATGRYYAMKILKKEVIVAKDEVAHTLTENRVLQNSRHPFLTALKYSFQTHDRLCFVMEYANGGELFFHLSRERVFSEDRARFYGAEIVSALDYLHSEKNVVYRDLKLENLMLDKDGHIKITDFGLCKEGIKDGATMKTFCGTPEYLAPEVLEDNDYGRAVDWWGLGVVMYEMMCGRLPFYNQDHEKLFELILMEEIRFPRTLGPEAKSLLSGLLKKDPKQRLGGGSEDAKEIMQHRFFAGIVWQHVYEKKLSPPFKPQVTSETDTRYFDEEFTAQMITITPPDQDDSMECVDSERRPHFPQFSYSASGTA

Take `CC(C)(C)OC(=O)NCCN(CCC(=O)NCCN)CCC(=O)NCCN`: the inhibition result in experiment [1] was “inactive”.

In the case of `O=C(CCCCC(=O)NCCNC(=O)CCN(CCC(=O)NCCNC(=O)CCCCC(=O)NCCCCCCO[C@H]1O[C@H](CO)[C@H](O)C2=C1SC[C@]1(C[C@@H](O)[C@@H](O)[C@@H]([C@H](O)CO)O1)O2)CCN(CCC(=O)NCCNC(=O)CCCCC(=O)NCCCCCCO[C@H]1O[C@H](CO)[C@H](O)C2=C1SC[C@@]1(C[C@@H](O)[C@@H](O)[C@@H]([C@H](O)CO)O1)O2)CCC(=O)NCCNC(=O)CCCCC(=O)NCCCCCCO[C@H]1O[C@H](CO)[C@H](O)C2=C1SC[C@@]1(C[C@@H](O)[C@@H](O)[C@@H]([C@H](O)CO)O1)O2)NCCCCCCO[C@H]1O[C@H](CO)[C@H](O)C2=C1SC[C@]1(C[C@@H](O)[C@@H](O)[C@@H]([C@H](O)CO)O1)O2`, the inhibition result in experiment [1] is “inactive”. Also, in experiment [2], the outcome was inactive.

Regarding `CC(=O)OC[C@@H](OC(C)=O)[C@@H]1O[C@@]2(CSC3=C(O2)[C@@H](OC(C)=O)[C@@H](COC(C)=O)O[C@@H]3OCCCCCCNC(=O)CCCCC(=O)Oc2ccc([N+](=O)[O-])cc2)C[C@H](OC(C)=O)[C@@H]1OC(C)=O`, in experiment [1], the inhibition entry was “inactive”.

Regarding `CC(C)(C)OC(=O)NCCN(CCC(=O)NCCNC(=O)CCCCC(=O)NCCCCCCO[C@H]1O[C@H](CO)[C@H](O)C2=C1SC[C@@]1(C[C@@H](O)[C@@H](O)[C@@H]([C@H](O)CO)O1)O2)CCC(=O)NCCNC(=O)CCCCC(=O)NCCCCCCO[C@H]1O[C@H](CO)[C@H](O)C2=C1SC[C@@]1(C[C@@H](O)[C@@H](O)[C@@H]([C@H](O)CO)O1)O2`, the inhibition entry in experiment [1] is “inactive”. Further, the result in experiment [2] was inactive.

As for `CO[C@H]1O[C@H](CO)[C@H](O)C2=C1SC[C@]1(C[C@H](O)[C@H](O)[C@H]([C@H](O)CO)O1)O2`, the inhibition entry in experiment [1] was “inactive”. In addition, the result in experiment [2] was inactive.

Take `CCCOc1c2cc(CCCn3cc(CCO[C@H]4O[C@H](CO)[C@H](O)C5=C4SC[C@]4(C[C@@H](O)[C@@H](O)[C@@H]([C@H](O)CO)O4)O5)nn3)cc1Cc1cc(CCCn3cc(CCO[C@H]4O[C@H](CO)[C@H](O)C5=C4SC[C@]4(C[C@@H](O)[C@@H](O)[C@@H]([C@H](O)CO)O4)O5)nn3)cc(c1OCCC)Cc1cc(CCCn3cc(CCO[C@H]4O[C@H](CO)[C@H](O)C5=C4SC[C@]4(C[C@@H](O)[C@@H](O)[C@@H]([C@H](O)CO)O4)O5)nn3)cc(c1OCCC)Cc1cc(CCCn3cc(CCO[C@H]4O[C@H](CO)[C@H](O)C5=C4SC[C@]4(C[C@@H](O)[C@@H](O)[C@@H]([C@H](O)CO)O4)O5)nn3)cc(c1OCCC)C2`: in experiment [3], the inhibition entry was “Active”. For the same molecule, the Activity in experiment [4] was determined as 32%. Moreover, the inhibition at 50 µM worked out at 60% in experiment [5] and 33% in experiment [1]. For the same molecule, the outcome in experiment [2] was inactive.

(Values after ChEMBL document CHEMBL2384984, “Multivalent presentation of a hydrolytically stable GM(3) lactone mimetic as modulator of melanoma cells motility and adhesion” (2013).)
